Assay [1] deals with T1, E1-STS in intact MCF-7 cells (Homo sapiens, UniProt P08842).
T1 construct: endogenous in cells; host or cells: MCF-7 human breast cancer cells
T1 sequence (P08842 22-583): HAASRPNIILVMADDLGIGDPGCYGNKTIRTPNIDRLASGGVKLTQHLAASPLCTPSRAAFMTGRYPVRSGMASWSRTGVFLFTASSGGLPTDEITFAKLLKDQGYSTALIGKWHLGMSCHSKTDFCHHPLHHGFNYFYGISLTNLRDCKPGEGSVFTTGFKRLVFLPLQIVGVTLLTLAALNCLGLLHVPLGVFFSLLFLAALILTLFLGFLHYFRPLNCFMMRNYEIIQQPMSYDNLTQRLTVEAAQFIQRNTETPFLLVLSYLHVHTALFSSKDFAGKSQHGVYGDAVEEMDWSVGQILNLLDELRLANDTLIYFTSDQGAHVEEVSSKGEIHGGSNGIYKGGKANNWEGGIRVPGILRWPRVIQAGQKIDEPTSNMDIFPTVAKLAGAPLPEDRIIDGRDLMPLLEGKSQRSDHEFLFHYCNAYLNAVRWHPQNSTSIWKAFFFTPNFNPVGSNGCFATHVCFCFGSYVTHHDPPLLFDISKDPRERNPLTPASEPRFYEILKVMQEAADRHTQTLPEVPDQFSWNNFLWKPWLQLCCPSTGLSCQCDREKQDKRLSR
Set-up: dose or concentration left out as unconfirmed. Particulars: cited from earlier work.

Assay [2] has as its system rats (uterotrophic activity). Conditions: cited from earlier work.
The target in assay [3] is T2, human placental steroid sulphatase (Homo sapiens, UniProt P08842).
T2 construct: Placental microsomes (100000 g fraction) were prepared from a positive-positive human placenta from a normal-term pregnancy; from tissue; host or cells: human placenta, microsomal fraction
T2 sequence (P08842 22-583): T1 sequence (P08842 22-583)
The assay can be described thus: Inhibition of oestrone sulphatase activity in human placental microsomes. In kind it is biochemical.

The target of a further assay is T3, STS (Homo sapiens, UniProt P08842).
T3 construct: can be assessed using either intact MCF-7 breast cancer cells or placental microsomes
T3 sequence (P08842 22-583): T1 sequence (P08842 22-583)
The assay can be described thus: biochemical.

Another assay concerns the target T4, steroid sulphatase (Homo sapiens, UniProt P08842).
T4 sequence (P08842 22-583): T1 sequence (P08842 22-583)
Conditions: cited from earlier work.

A further assay deals with breast tumour cells. Conditions: cited from earlier work.

Values joined by “and” are separate entries in the source; they are usually repeats but may differ in a detail not shown here. Identical values can stand only once.

As to `C[C@]12CC[C@@H]3c4ccc(OS(N)(=O)=O)cc4CC[C@H]3[C@@H]1CCC2=O` [EMATE, estrone-3-O-sulfamate], the “inhibition of E1-STS activity” value in assay [1] is reported as “more than 99%”. Moreover, the “oral uterotrophic activity, times higher than that of oestradiol” value in assay [2] is listed as 100 times. In assay [3], this molecule returned an IC50 of 8 nM.

In the case of `NS(=O)(=O)Oc1ccc2c3c(c(=O)oc2c1)CCCCC3` [667 Coumate, reference compound], at STS (0.005 µM), the “667 Coumate value: % Inhibition” value was 5 nM = 63%Inhibition and 5 nM = 56%Inhibition. Further, the inhibition at 0.005 µM at STS (read-out: 667 Coumate value: % Inhibition) was found to be 63%. Also, the “times more potent than EMATE in vitro” value at steroid sulphatase is around 3 times.

On to `C[C@]12CC[C@@H]3c4ccc(O)cc4CC[C@H]3[C@@H]1CC[C@@H]2O` [Oestradiol, oestradiol], for which the “proliferative effect, fold greater than oestrone” value in the assay on breast tumour cells is given as 10 fold.

The values above are taken from patent US7098218B2, “Steroidal compounds for inhibiting steroid sulphatase” (priority 2001, dated 2006).
